Measured values from article PMC10390520, “Antibody binding of amyloid beta peptide epimers/isomers and ramifications for immunotherapies and drug development” (Scientific Reports, 2023).

Tested on: antibodies 4G8, 6E10, mOC98 and mOC23
Experiment: Immunoprecipitation of Aβ 1–42 peptides with four antibodies, LC-MS/MS detection
Format: binding
Conditions: Fig. 3B data, corrected with individual MS/MS calibration curves; 11 pmol Aβ peptide, 13.2 pmol antibody in 300 µL IP lysis/wash buffer; Protein A/G plus agarose; LC-MS/MS 903–886 m/z; triplicate
Procedure: Antibody binding efficacy was assessed through an immunoprecipitation procedure, followed by reconstitution in borate buffer and analysis via liquid chromatography tandem mass spectrometry (see Methods). […] Note that these antibodies were developed using the WT (all L) Aβ peptide. Further, the MS/MS detection also was optimized using the WT (all L) Aβ peptide. […] The reduced signal intentensities could be attributed to the altered binding between the antibody and the “aberrant” forms of Aβ, differences in the MS/MS of the “aberrant” Aβ or combinations of these two factors. […]
Purified anti-β-Amyloids 17–24 Antibody (4G8) and 1–16 Antibody (6E10) were purchased from BioLegend (San Diego, CA, USA) while mOC-type antibodies recombinant anti-beta amyloid 1–42 mOC98 and mOC23 were purchased from Abcam (Cambridge, UK). Antibody-antigen binding was measured using Pierce Classic IP Kit by Thermo Fisher Scientific (Waltham, MA, USA). […] Elution buffer was evaporated and samples were reconstituted in 20 µL of 0.1 M borate buffered to pH 9.1 and analyzed by LC–MS/MS. […]
HPLC–MS grade acetonitrile was purchased from Sigma-Aldrich and ultrapure water was obtained from a Milli-Q-water system (Millipore, Bedford, MA, USA). […] WT (all L) Aβ 1–42 and aberrant Aβ 1–42 immunoprecipitated standards were quantitated using the MS/MS transition 903–886 m/z. […]

Substance: WT (all L) Aβ: unmodified wild-type all-L amyloid beta 1–42 peptide, purchased from Genscript
- antibody binding affinity (immunoprecipitation extraction) compared to WT (all L) Aβ: same efficacy
